Among the data in PubChem BioAssay AID256 (DTP/NCI, 2004) are T/C values, retold here.

The test concerns CD2F1 mice, L1210 leukemia ip, survival T/C. Description: NCI In Vivo Anticancer Drug Screen. Data for tumor model L1210 Leukemia (intraperitoneal) in CD2F1 (CDF1) mice. As to conditions: higher = longer survival. The procedure, abridged: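 Implant tumor; dose compound or vehicle; measure endpoint in both groups; report treated divided by control.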
[1] abbreviates: endpoint: mean survival time, dose: 100.0 mg/kg/injection, schedule: Q04DX003 (ip), vehicle: saline with Tween-80.
[2] abbreviates: endpoint: mean survival time, dose: 200.0 mg/kg/injection, schedule: Q04DX003 (ip), vehicle: saline with Tween-80.
The mark [3] stands for this setting: endpoint: mean survival time, dose: 400.0 mg/kg/injection, schedule: Q04DX003 (ip), vehicle: saline with Tween-80.
Setting [4] is: endpoint: mean survival time, dose: 100.0 mg/kg/injection, schedule: Q01DX009 (ip), vehicle: saline with Tween-80.
Where [5] appears, read: endpoint: mean survival time, dose: 200.0 mg/kg/injection, schedule: Q01DX009 (ip), vehicle: saline with Tween-80.
Setting [6] is: endpoint: mean survival time, dose: 400.0 mg/kg/injection, schedule: Q01DX009 (ip), vehicle: saline with Tween-80.
[7] abbreviates: endpoint: mean survival time, dose: 25.0 mg/kg/injection, schedule: Q04DX003 (ip), vehicle: saline.
The mark [8] stands for this setting: endpoint: mean survival time, dose: 50.0 mg/kg/injection, schedule: Q04DX003 (ip), vehicle: saline.
[9] abbreviates: endpoint: mean survival time, dose: 100.0 mg/kg/injection, schedule: Q04DX003 (ip), vehicle: saline.
Where [10] appears, read: endpoint: mean survival time, dose: 100.0 mg/kg/injection, schedule: Q01DX001 (ip), vehicle: saline.
The mark [11] stands for this setting: endpoint: mean survival time, dose: 200.0 mg/kg/injection, schedule: Q04DX003 (ip), vehicle: saline.
Setting [12] is: endpoint: mean survival time, dose: 400.0 mg/kg/injection, schedule: Q04DX003 (ip), vehicle: saline.

“And” between values parts separate entries of the source, which are not always exact repeats. Equal entries are not always repeated. Toxic doses and inconclusive results are not listed.

For the compound `CN(C)CCCC1c2ccccc2Oc2ccc(C(F)(F)F)cc21` (stereo not drawn), the T/C runs as follows: (endpoint: mean survival time, dose: 1.56 mg/kg/injection, schedule: Q01DX009 (ip), vehicle: saline) 96 % of control; (endpoint: mean survival time, dose: 3.12 mg/kg/injection, schedule: Q01DX009 (ip), vehicle: saline) 100 % of control; (endpoint: mean survival time, dose: 6.25 mg/kg/injection, schedule: Q01DX009 (ip), vehicle: saline) 94 % of control; (endpoint: mean survival time, dose: 12.5 mg/kg/injection, schedule: Q01DX009 (ip), vehicle: saline) 100 % of control; (endpoint: mean survival time, dose: 25.0 mg/kg/injection, schedule: Q01DX009 (ip), vehicle: saline) 103 % of control.
`NC(=S)N/N=C/c1cc(Cl)c2nc(-c3ccccc3)ccc2c1`: the T/C by setting is: under setting [1], 104 % of control; under setting [2], 102 % of control; under setting [3], 104 % of control.
For `CN(Cc1ccccc1)N=Nc1ccc(C(=O)O)cc1`, the T/C (endpoint: mean survival time, dose: 25.0 mg/kg/injection, schedule: Q01DX009 (ip), vehicle: other) is 105 % of control; the T/C (endpoint: mean survival time, dose: 50.0 mg/kg/injection, schedule: Q01DX009 (ip), vehicle: other) was 108 % of control; the T/C (endpoint: mean survival time, dose: 100.0 mg/kg/injection, schedule: Q01DX009 (ip), vehicle: other) was 101 % of control.
Take `O=C(c1ccccc1)C(C(c1ccc([N+](=O)[O-])cc1)N1CCOCC1)N1CCOCC1` (stereo not drawn): the T/C is, setting by setting: under setting [4], 97 % of control; under setting [1], 101 % of control; under setting [5], 96 % of control; under setting [2], 101 % of control; under setting [6], 96 % of control; under setting [3], 108 % of control.
On to `ClI(Cl)c1ccccc1`, for which, under setting [4], the T/C is 98 % of control.
Take `CC(C)(C)OC(=O)NC(CCC(=O)O)C(=O)OC(C)(C)C` (stereo not drawn): the T/C is 102 % of control under setting [4], 93 % of control under setting [5] and 92 % of control under setting [6].
As to `O=C(O)CNC(=O)C(CN1CC(=O)OC1c1ccc([N+](=O)[O-])cc1)N1C(=O)c2ccccc2C1=O` (stereo not drawn), the T/C was 92 % of control (endpoint: mean survival time, dose: 100.0 mg/kg/injection, schedule: Q04DX003 (ip), vehicle: saline sonified); 88 % of control (endpoint: mean survival time, dose: 200.0 mg/kg/injection, schedule: Q04DX003 (ip), vehicle: saline sonified); 92 % of control (endpoint: mean survival time, dose: 400.0 mg/kg/injection, schedule: Q04DX003 (ip), vehicle: saline sonified).
`C=C(C)CNCC(=C)C`: the T/C was 102 % of control under setting [7]; 98 % of control under setting [8]; 102 % of control and 106 % of control under setting [9].
For `Cc1cccc(Cl)c1NC(=O)C(C)N1CCCC1` (stereo not drawn), the T/C by setting is: (endpoint: mean survival time, dose: 12.5 mg/kg/injection, schedule: Q04DX003 (ip), vehicle: saline) 100 % of control; under setting [7], 107 % of control; under setting [8], 104 % of control.
Consider `COc1ccc(CNCCCC2C3CCC(C3)C2CN)cc1` (stereo not drawn), for which the T/C is, setting by setting: under setting [1], 95 % of control; under setting [2], 95 % of control.
On to `Cc1ccc(-c2csc(/N=C/c3ccccc3O)n2)cc1.Cc1ccc(-c2csc(/N=C/c3ccccc3O)n2)cc1.[Cu]`, for which the T/C reads like this: (endpoint: mean survival time, dose: 25.0 mg/kg/injection, schedule: Q01DX001 (ip), vehicle: saline) 91 % of control; (endpoint: mean survival time, dose: 50.0 mg/kg/injection, schedule: Q01DX001 (ip), vehicle: saline) 96 % of control; (endpoint: mean survival time, dose: 100.0 mg/kg/injection, schedule: Q01DX001 (ip), vehicle: saline with Tween-80) 86 % of control; under setting [10], 87 % of control; (endpoint: mean survival time, dose: 400.0 mg/kg/injection, schedule: Q01DX001 (ip), vehicle: saline with Tween-80) 93 % of control.
For the compound `N#Cc1c(NC(=S)NC2OC(COCc3ccccc3)C(OCc3ccccc3)C2OCc2ccccc2)ncn1Cc1ccccc1` (stereo not drawn), the T/C reads like this: (endpoint: mean survival time, dose: 50.0 mg/kg/injection, schedule: Q01DX009 (ip), vehicle: acetone) 94 % of control; (endpoint: mean survival time, dose: 100.0 mg/kg/injection, schedule: Q01DX009 (ip), vehicle: acetone) 98 % of control; (endpoint: mean survival time, dose: 100.0 mg/kg/injection, schedule: Q04DX003 (ip), vehicle: acetone) 91 % of control; (endpoint: mean survival time, dose: 200.0 mg/kg/injection, schedule: Q01DX009 (ip), vehicle: acetone) 93 % of control; (endpoint: mean survival time, dose: 200.0 mg/kg/injection, schedule: Q04DX003 (ip), vehicle: acetone) 91 % of control.
As to `CS(=O)(=O)Nc1ccc(CC#N)cc1`, the T/C is 98 % of control under setting [4]; 101 % of control under setting [1]; 101 % of control under setting [5]; 107 % of control under setting [2]; 102 % of control under setting [6]; 109 % of control under setting [3].
For `CC(=O)NNC(=O)c1ccc(Br)cc1`, the T/C reads like this: under setting [4], 107 % of control; under setting [5], 119 % of control.
Consider `COC(=O)C12CCC1(Cl)CC2` (stereo not drawn), for which the T/C runs as follows: under setting [9], 98 % of control; under setting [11], 93 % of control; under setting [12], 96 % of control.
As for `CCOC(=O)/C=C/SCC(N)C(=O)OCC` (stereo not drawn), the T/C runs as follows: (endpoint: mean survival time, dose: 25.0 mg/kg/injection, schedule: Q04DX002 (ip), vehicle: saline) 98 % of control; (endpoint: mean survival time, dose: 50.0 mg/kg/injection, schedule: Q04DX002 (ip), vehicle: saline) 94 % of control; under setting [10], 101 % of control; (endpoint: mean survival time, dose: 100.0 mg/kg/injection, schedule: Q04DX002 (ip), vehicle: saline) 96 % of control.
Turning to `CN(N=O)c1nnnn1C`, the T/C was 105 % of control under setting [9], 103 % of control under setting [11] and 106 % of control under setting [12].
As to `O=C(O)c1ccccc1/C=C/c1ccc([N+](=O)[O-])cc1`, the T/C is, setting by setting: (endpoint: mean survival time, dose: 25.0 mg/kg/injection, schedule: Q01DX009 (ip), vehicle: saline with Tween-80) 98 % of control; (endpoint: mean survival time, dose: 50.0 mg/kg/injection, schedule: Q01DX009 (ip), vehicle: saline with Tween-80) 95 % of control; under setting [4], 104 % of control.
As to `O=C1C(Cl)=C(c2ccccc2)C(=O)C(Cl)=C1c1ccccc1`, the T/C runs as follows: (endpoint: mean survival time, dose: 50.0 mg/kg/injection, schedule: Q04DX003 (ip), vehicle: saline with Tween-80) 103 % of control; under setting [1], 109 % of control; under setting [2], 107 % of control.
Consider `CC(=O)OC1CCC2(C)C3CCC4(C)C(O)CCC4C3CC(O)C2(O)C1` (stereo not drawn), for which the T/C is, setting by setting: under setting [1], 90 % of control; under setting [2], 87 % of control; under setting [3], 91 % of control.
Turning to `Cc1nc(C)c2c(n1)Oc1ccc3ccccc3c1C2`, the T/C under setting [10] was 97 % of control; the T/C (endpoint: mean survival time, dose: 200.0 mg/kg/injection, schedule: Q01DX001 (ip), vehicle: saline) was 97 % of control; the T/C (endpoint: mean survival time, dose: 400.0 mg/kg/injection, schedule: Q01DX001 (ip), vehicle: saline) was 97 % of control.
On to `O=C(NC1CC1(c1ccccc1)c1ccccc1)NC1CC1(c1ccccc1)c1ccccc1` (stereo not drawn), for which the T/C runs as follows: (endpoint: mean survival time, dose: 9.35 mg/kg/injection, schedule: Q01DX001 (ip), vehicle: other) 93 % of control; (endpoint: mean survival time, dose: 18.7 mg/kg/injection, schedule: Q01DX001 (ip), vehicle: other) 91 % of control; (endpoint: mean survival time, dose: 37.5 mg/kg/injection, schedule: Q01DX001 (ip), vehicle: other) 94 % of control.
Consider `O=C(C1=C/C(=C\c2ccccc2)CCC1)c1ccccc1`, for which the T/C reads like this: under setting [4], 98 % of control; under setting [1], 104 % of control; under setting [5], 94 % of control; under setting [2], 100 % of control; under setting [6], 88 % of control; under setting [3], 102 % of control.
Regarding `CC(C)=CC(=O)OC1C2C(C)=CC(=O)C(O)C2(C)C2C3(O)OCC24C(CC(=O)OC14)C(C)C3O` (stereo not drawn), the T/C is, setting by setting: (endpoint: mean survival time, dose: 0.25 mg/kg/injection, schedule: Q01DX009 (ip), vehicle: distilled water + Tween-80) 110 % of control; (endpoint: mean survival time, dose: 0.5 mg/kg/injection, schedule: Q01DX009 (ip), vehicle: distilled water + Tween-80) 124 % of control; (endpoint: mean survival time, dose: 1.0 mg/kg/injection, schedule: Q01DX009 (ip), vehicle: distilled water + Tween-80) 112 % of control; (endpoint: mean survival time, dose: 2.0 mg/kg/injection, schedule: Q01DX009 (ip), vehicle: saline with Tween-80) 151 % of control; (endpoint: median survival time, dose: 0.25 mg/kg/injection, schedule: Q01DX009 (ip), vehicle: distilled water + Tween-80 + alcohol) 122 % of control; (endpoint: median survival time, dose: 0.5 mg/kg/injection, schedule: Q01DX009 (ip), vehicle: distilled water + Tween-80 + alcohol) 124 % of control. For the same compound, where the note is “endpoint: median survival time, dose: 2.0 mg/kg/injection, schedule: Q01DX009 (ip), vehicle: distilled water + Tween-80 + alcohol”, the T/C is 153 % of control.
